Results published in US12180193B2, “Accelerating fibrosarcoma protein degrading compounds and associated methods of use” (Arvinas Operations, Inc., priority 2020, dated 2024).

What was measured:
BRAF V600E = biological target: T1, BRAF V600E (Homo sapiens, UniProt P15056, V600E); experiment: Cellular assay of target protein degradation, T-Rex 293 cells stably transfected with HA-BRAF_V600E (HA immunofluorescence, high content imaging); format: cell-based; details: T-Rex 293 HA-BRAF V600E; for DC50: half maximal degradation, read-out: BRaf V600E DC50; for Dmax: maximum degradation observed
T1 construct: expressed in transfected cells
Summary of the method: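 24 h compound exposure, 1 μM–0.1 nM final, 0.1% DMSO, 37 °C; cells induced with 1 ng/mL doxycycline. PFA fix, Triton permeabilize, anti-HA overnight 4 °C, Hoechst/phalloidin counterstain. Output: DC50, Dmax as % control.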

BRAF G466V = biological target: T2, BRAF G466V (Homo sapiens, UniProt P15056, G466V); experiment: Cellular assay of target protein degradation, T-Rex 293 cells stably transfected with HA-BRAF G466V (HA immunofluorescence, high content imaging); format: cell-based; details: T-Rex 293 HA-BRAF G466V; for DC50: half maximal degradation, read-out: BRaf G466V DC50; for Dmax: maximum degradation observed
T2 construct: expressed in transfected cells
Summary of the method: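 24 h compound, 30 nM–3 pM final, 0.1% DMSO, 37° C; HA-BRAF G466V induced with 0.75 ng/mL doxycycline. PFA fix, Triton perm, anti-HA + Alexa fluor secondary, Hoechst/phalloidin counterstain; imaging. DC50, Dmax (% of control).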

T2 sequence (P15056 whole entry G466V): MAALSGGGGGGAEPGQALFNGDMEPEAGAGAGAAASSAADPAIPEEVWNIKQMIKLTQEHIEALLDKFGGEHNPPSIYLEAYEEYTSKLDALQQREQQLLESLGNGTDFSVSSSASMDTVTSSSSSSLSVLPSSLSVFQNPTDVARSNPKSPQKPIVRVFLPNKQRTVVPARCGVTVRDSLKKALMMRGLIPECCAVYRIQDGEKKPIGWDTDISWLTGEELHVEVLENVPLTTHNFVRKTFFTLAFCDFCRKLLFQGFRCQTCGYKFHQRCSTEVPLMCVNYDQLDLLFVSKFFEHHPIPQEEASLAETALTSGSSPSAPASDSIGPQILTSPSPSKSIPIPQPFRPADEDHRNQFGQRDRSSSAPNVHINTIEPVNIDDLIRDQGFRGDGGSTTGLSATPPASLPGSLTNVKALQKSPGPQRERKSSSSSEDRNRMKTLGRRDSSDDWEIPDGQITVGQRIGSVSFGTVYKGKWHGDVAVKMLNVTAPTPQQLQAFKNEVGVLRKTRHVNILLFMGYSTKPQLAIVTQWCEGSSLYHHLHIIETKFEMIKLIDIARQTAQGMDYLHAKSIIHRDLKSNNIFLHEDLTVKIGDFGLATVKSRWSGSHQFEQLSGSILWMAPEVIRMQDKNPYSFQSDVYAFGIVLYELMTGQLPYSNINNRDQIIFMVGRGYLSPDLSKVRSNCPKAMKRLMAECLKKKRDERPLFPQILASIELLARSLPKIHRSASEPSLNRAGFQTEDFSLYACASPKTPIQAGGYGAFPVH
T1 sequence (P15056 whole entry V600E): as the sequence (P15056 whole entry G466V) above, with V466G, V600E counted along it

SMILES | DC50 (BRAF V600E) [nM] | Dmax (BRAF V600E) [%] | DC50 (BRAF G466V) [nM] | Dmax (BRAF G466V) [%]
O=C1CCC(N2Cc3cc(N4CCN(CC5CN(c6ncc(-c7cnc8[nH]cc(C(=O)c9c(F)ccc(NS(=O)(=O)N%10CC[C@@H](F)C%10)c9F)c8c7)cn6)C5)CC4)ccc3C2=O)C(=O)N1 (stereo partly drawn) [Compound 91, (3R)-N-[3-(5-{2-[3-({4-[2-(2,6-dioxopiperidin-3-yl)-1-oxo-2,3-dihydro-1H-isoindol-5-yl]piperazin-1-yl}methyl)azetidin-1-yl]pyrimidin-5-yl}-1H-pyrrolo[2,3-b]pyridine-3-carbonyl)-2,4-difluorophenyl]-3-fluoropyrrolidine-1-sulfonamide] | 5 to 50 | 35 to 70 | 1 to 10 | > 70
C[C@H](c1ncc(-c2cnc3[nH]cc(C(=O)c4c(F)ccc(NS(=O)(=O)N5CC[C@@H](F)C5)c4F)c3c2)cn1)N1CCN(CC2CCN(c3ccc4c(c3)CN([C@H]3CCC(=O)NC3=O)C4=O)CC2)CC1 [Compound 290, (3R)-N-[3-(5-{2-[(1R)-1-{4-[(1-{2-[(3S)-2,6-dioxopiperidin-3-yl]-1-oxo-2,3-dihydro-1H-isoindol-5-yl}piperidin-4-yl)methyl]piperazin-1-yl}ethyl]pyrimidin-5-yl}-1H-pyrrolo[2,3-b]pyridine-3-carbonyl)-2,4-difluorophenyl]-3-fluoropyrrolidine-1-sulfonamide] | 50 to 500 | 35 to 70 | 1 to 10 | 35 to 70
CCCS(=O)(=O)Nc1ccc(F)c(C(=O)c2c[nH]c3ncc(-c4ccc(N5CCN(CC6CCN(c7ccc8c(c7)CN([C@H]7CCC(=O)NC7=O)C8=O)CC6)CC5)cc4)cc23)c1F [Compound 243, N-{3-[5-(4-{4-[(1-{2-[(3S)-2,6-dioxopiperidin-3-yl]-1-oxo-2,3-dihydro-1H-isoindol-5-yl}piperidin-4-yl)methyl]piperazin-1-yl}phenyl)-1H-pyrrolo[2,3-b]pyridine-3-carbonyl]-2,4-difluorophenyl}propane-1-sulfonamide] | 5 to 50 | 35 to 70 | 1 to 10 | > 70
O=C1CCC(N2Cc3cc(N4CCN(c5cc(N6CCN(c7ccc(-c8cnc9[nH]cc(C(=O)c%10c(F)ccc(NS(=O)(=O)N%11CC[C@@H](F)C%11)c%10F)c9c8)cc7)CC6)ncn5)CC4)ccc3C2=O)C(=O)N1 (stereo partly drawn) [Compound 115, (3R)-N-[3-(5-{4-[4-(6-{4-[2-(2,6-dioxopiperidin-3-yl)-1-oxo-2,3-dihydro-1H-isoindol-5-yl]piperazin-1-yl}pyrimidin-4-yl)piperazin-1-yl]phenyl}-1H-pyrrolo[2,3-b]pyridine-3-carbonyl)-2,4-difluorophenyl]-3-fluoropyrrolidine-1-sulfonamide] | 5 to 50 | < 35 | 1 to 10 | 35 to 70
O=C1CCC(N2Cc3cc(CCCCCN4CCN(c5ccc(-c6cnc7[nH]cc(C(=O)c8c(F)ccc(NS(=O)(=O)N9CC[C@@H](F)C9)c8F)c7c6)cc5)CC4)ccc3C2=O)C(=O)N1 (stereo partly drawn) [Compound 64, (3R)-N-(3-{5-[4-(4-{5-[2-(2,6-dioxopiperidin-3-yl)-1-oxo-2,3-dihydro-1H-isoindol-5-yl]pentyl}piperazin-1-yl)phenyl]-1H-pyrrolo[2,3-b]pyridine-3-carbonyl}-2,4-difluorophenyl)-3-fluoropyrrolidine-1-sulfonamide] | 5 to 50 | 35 to 70 | < 1 | 35 to 70
O=C1CCC(N2Cc3cc(C4CCN(CCc5ccc(-c6cnc7[nH]cc(C(=O)c8c(F)ccc(NS(=O)(=O)N9CC[C@@H](F)C9)c8F)c7c6)cc5)[C@@H](CO)C4)ccc3C2=O)C(=O)N1 (stereo partly drawn) [Compound 150, (3R)-N-{3-[5-(4-{2-[(2R)-4-[2-(2,6-dioxopiperidin-3-yl)-1-oxo-2,3-dihydro-1H-isoindol-5-yl]-2-(hydroxymethyl)piperidin-1-yl]ethyl}phenyl)-1H-pyrrolo[2,3-b]pyridine-3-carbonyl]-2,4-difluorophenyl}-3-fluoropyrrolidine-1-sulfonamide] | 50 to 500 | 35 to 70 | 1 to 10 | > 70
O=C1CC[C@H](N2Cc3cc(C4CCN(CC5CCN(c6ccc(-c7cnc8[nH]cc(C(=O)c9c(F)ccc(NS(=O)(=O)N%10CC[C@@H](F)C%10)c9Cl)c8c7)cc6)CC5)CC4)ccc3C2=O)C(=O)N1 [Compound 252, (3R)-N-{2-chloro-3-[5-(4-{4-[(4-{2-[(3S)-2,6-dioxopiperidin-3-yl]-1-oxo-2,3-dihydro-1H-isoindol-5-yl}piperidin-1-yl)methyl]piperidin-1-yl}phenyl)-1H-pyrrolo [2,3-b]pyridine-3-carbonyl]-4-fluorophenyl}-3-fluoropyrrolidine-1-sulfonamide] | 5 to 50 | 35 to 70 | < 1 | 35 to 70
O=C1CCC(N2Cc3cc(N4CCC(CN5CCN(c6ccc(-c7cnc8[nH]cc(C(=O)c9c(F)ccc(NS(=O)(=O)N%10CC[C@@H](F)C%10)c9F)c8c7)cc6)CC(F)(F)C5)CC4)ccc3C2=O)C(=O)N1 (stereo partly drawn) [Compound 315, (3R)-N-{3-(5-{4-[4-({1-[2-(2,6-dioxopiperidin-3-yl)-1-oxo-2,3-dihydro-1H-isoindol-5-yl]piperidin-4-yl}methyl)-6,6-difluoro-1,4-diazepan-1-yl]phenyl}-1H-pyrrolo[2,3-b]pyridine-3-carbonyl)-2,4-difluorophenyl]-3-fluoropyrrolidine-1-sulfonamide] | > 500 |  | > 30 | 
O=C1CCC(N2Cc3cc(OCCCCN4CCN(c5ncc(-c6cnc7[nH]cc(C(=O)c8c(F)ccc(NS(=O)(=O)N9CC[C@@H](F)C9)c8F)c7c6)cn5)CC4)ccc3C2=O)C(=O)N1 (stereo partly drawn) [Compound 121, (3R)-N-[3-(5-{2-[4-(4-{[2-(2,6-dioxopiperidin-3-yl)-1-oxo-2,3-dihydro-1H-isoindol-5-yl]oxy}butyl)piperazin-1-yl]pyrimidin-5-yl}-1H-pyrrolo[2,3-b]pyridine-3-carbonyl)-2,4-difluorophenyl]-3-fluoropyrrolidine-1-sulfonamide] | 5 to 50 | 35 to 70 | 1 to 10 | > 70
O=C1CC[C@@H](N2Cc3cc(N4CCC(CN5CCN(c6ccc(-c7cnc8[nH]cc(C(=O)c9c(F)ccc(NS(=O)(=O)N%10CC[C@@H](F)C%10)c9F)c8c7)cc6)CC5)CC4)ccc3C2=O)C(=O)N1 [Compound 224, (3R)-N-{3-[5-(4-{4-[(1-{2-[(3R)-2,6-dioxopiperidin-3-yl]-1-oxo-2,3-dihydro-1H-isoindol-5-yl}piperidin-4-yl)methyl]piperazin-1-yl}phenyl)-1H-pyrrolo [2,3-b]pyridine-3-carbonyl]-2,4-difluorophenyl}-3-fluoropyrrolidine-1-sulfonamide] | 5 to 50 | 35 to 70 | 1 to 10 | > 70
O=C1CCC(N2Cc3cc(C4CCN(C[C@@H]5CCN(c6ccc(-c7cnc8[nH]cc(C(=O)c9c(F)ccc(NS(=O)(=O)N%10CC[C@@H](F)C%10)c9F)c8c7)cc6)C[C@@H]5F)CC4)ccc3C2=O)C(=O)N1 (stereo partly drawn) [Compound 125, (3R)-N-[3-(5-{4-[(3R,4S)-4-({4-[2-(2,6-dioxopiperidin-3-yl)-1-oxo-2,3-dihydro-1H-isoindol-5-yl]piperidin-1-yl}methyl)-3-fluoropiperidin-1-yl]phenyl}-1H-pyrrolo[2,3-b]pyridine-3-carbonyl)-2,4-difluorophenyl]-3-fluoropyrrolidine-1-sulfonamide] | 5 to 50 | 35 to 70 | 1 to 10 | > 70
O=C1CC[C@H](NC(=O)c2ccc(N3CCN(CC4CCN(c5ccc(-c6cnc7[nH]cc(C(=O)c8c(F)ccc(NS(=O)(=O)N9CC[C@@H](F)C9)c8F)c7c6)cc5)CC4)CC3)cc2F)C(=O)N1 [Compound 341, 4-(4-{[1-(4-{3-[2,6-difluoro-3-({[(3R)-3-fluoropyrrolidin-1-yl]sulfonyl}amino)benzoyl]-1H-pyrrolo[2,3-b]pyridin-5-yl}phenyl)piperidin-1-yl]methyl}piperazin-1-yl)-N-[(3S)-2,6-dioxopiperidin-3-yl]-2-fluorobenzamide] | 5 to 50 | 35 to 70 | 1 to 10 | > 70
O=C1CCC(N2Cc3cc(C4CCN(CC5CCN(c6ncc(-c7cnc8[nH]cc(C(=O)c9c(F)ccc(NS(=O)(=O)N%10CC[C@@H](F)C%10)c9F)c8c7)cn6)CC5)CC4)ccc3C2=O)C(=O)N1 (stereo partly drawn) [Compound 46, (3R)-N-[3-(5-{2-[4-({4-[2-(2,6-dioxopiperidin-3-yl)-1-oxo-2,3-dihydro-1H-isoindol-5-yl]piperidin-1-yl}methyl)piperidin-1-yl]pyrimidin-5-yl}-1H-pyrrolo[2,3-b]pyridine-3-carbonyl)-2,4-difluorophenyl]-3-fluoropyrrolidine-1-sulfonamide] | 5 to 50 | 35 to 70 | < 1 | > 70
O=C1CCC(N2Cc3cc(OCCCCN4CCN(c5ccc(-c6cnc7[nH]cc(C(=O)c8c(F)ccc(NS(=O)(=O)N9CC[C@@H](F)C9)c8F)c7c6)cc5F)CC4)ccc3C2=O)C(=O)N1 (stereo partly drawn) [Compound 113, (3R)-N-[3-(5-{4-[4-(4-{[2-(2,6-dioxopiperidin-3-yl)-1-oxo-2,3-dihydro-1H-isoindol-5-yl]oxy}butyl)piperazin-1-yl]-3-fluorophenyl}-1H-pyrrolo[2,3-b]pyridine-3-carbonyl)-2,4-difluorophenyl]-3-fluoropyrrolidine-1-sulfonamide] | 5 to 50 | 35 to 70 | 1 to 10 | > 70
